Data from patent US9808455B2.

System: extra cellular levels of acetylcholine in the prefrontal cortex
Assay: extracellular acetylcholine levels in the prefrontal cortex, preclinical studies in rats
Format: in vivo
Text: At a mechanistic level, pharmacodynamic interactions between an acetylcholinesterase inhibitor and a 5HT6 receptor antagonist are feasible. […] Although the underlying mechanism is still unknown, it is likely due to increases in the release of acetylcholine from cholinergic neurons, On the other hand, donepezil increases the extracellular levels of acetylcholine by inhibiting the acetylcholinesterase to reduce the degradation of acetylcholine.

In the case of `O=S(=O)(c1ccccc1)c1cnc2c(N3CCNCC3)cccc2c1`, the “extra cellular levels of acetylcholine in the prefrontal cortex” value was “small increase”.
